Key:
arthritic rats = test: Analgesic activity: effect on adjuvant arthritis in rats (Randall-Selitto); assay type: in vivo, Lewis rats; conditions: single dose 3.2 mg/kg; mechanical pain threshold of left hind paw 2 hrs after administration; ratio to non-treated rats
COX-I = biological target: T1, COX-I (Homo sapiens, UniProt P23219); test: Whole blood assay for COX-I (TXB2 production); assay type: cell-based; conditions: 1 hr at 37° C.
T1 construct: Fresh blood was collected by syringe without anticoagulants from volunteers with consent; from tissue; host or cells: fresh human whole blood from volunteers, left to clot; TXB2 read-out
Protocol: Whole blood assay for COX-I
Fresh blood was collected by syringe without anticoagulants from volunteers with consent. The subjects had no apparent inflammatory conditions and had not taken any medication for at least 7 days prior to blood collection.
500 μL Aliquots of human whole blood were immediately incubated with 2 μL of either dimethyl sulfoxide vehicle or a test compound at final concentrations for 1 hr at 37° C. to allow the blood to clot. Appropriate treatments (no incubation) were used as blanks. At the end of the incubation, 5 μL of 250 mM Indomethacin was added to stop the reaction. The blood was centrifuged at 6000×g for 5 min at 4° C. to obtain serum. A 100 μL aliquot of serum was mixed with 400 μL methanol for protein precipitation. The supernatant was obtained by centrifuging at 6000×g for 5 min at 4° C. and was assayed for TXB2 using an enzyme immunoassay kit according to the manufacturer's procedure. For a test compound, the results were expressed as percent inhibition of thromboxane B2(TXB2) production relative to control incubations containing dimethyl sulfoxide vehicle.
The data were analyzed by that a test compound at the indicated concentrations was changed log value and was applied simple linear regression. IC50 value was calculated by least squares method.

COX-II = biological target: T2, COX-II (Homo sapiens, UniProt P35354); test: Whole blood assay for COX-II (LPS-induced PGE2 production); assay type: cell-based; conditions: lipopolysaccharide 24 hrs at 37° C.
T2 construct: incubation of the blood with 10 μL of 5 mg/mL lipopolysaccharide for 24 hrs at 37° C. for induction of COX-II; from tissue; host or cells: heparinized fresh human whole blood from volunteers, LPS-stimulated for 24 h; PGE2 read-out
T2 sequence (P35354 18-604): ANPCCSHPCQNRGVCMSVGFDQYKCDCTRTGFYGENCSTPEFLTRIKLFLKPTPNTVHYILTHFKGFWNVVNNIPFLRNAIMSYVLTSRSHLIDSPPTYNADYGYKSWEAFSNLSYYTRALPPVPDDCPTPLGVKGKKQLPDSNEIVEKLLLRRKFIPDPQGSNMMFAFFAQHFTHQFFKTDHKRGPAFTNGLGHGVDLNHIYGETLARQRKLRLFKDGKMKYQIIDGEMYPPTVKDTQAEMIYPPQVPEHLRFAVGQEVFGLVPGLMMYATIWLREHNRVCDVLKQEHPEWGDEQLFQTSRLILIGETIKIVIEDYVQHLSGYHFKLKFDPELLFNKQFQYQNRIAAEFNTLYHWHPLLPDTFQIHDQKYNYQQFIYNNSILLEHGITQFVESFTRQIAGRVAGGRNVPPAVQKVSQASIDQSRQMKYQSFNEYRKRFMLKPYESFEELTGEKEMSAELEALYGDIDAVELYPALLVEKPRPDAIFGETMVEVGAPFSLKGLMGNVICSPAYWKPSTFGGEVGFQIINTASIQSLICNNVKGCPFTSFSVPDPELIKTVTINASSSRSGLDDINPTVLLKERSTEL
Protocol: Whole Blood Assay for COX-II
Fresh blood was collected in heparinized tubes by syringe from volunteers with consent. The subjects had no apparent inflammatory conditions and had not taken any medication for at least 7 days prior to blood collection.
500 μL aliquots of human whole blood were incubated with either 2 μL dimethyl sulfoxide vehicle or 2 μL of a test compound at final concentrations for 15 min at 37° C. This was followed by incubation of the blood with 10 μL of 5 mg/mL lipopolysaccharide for 24 hrs at 37° C. for induction of COX-II. Appropriate PBS treatments (no LPS) were used as blanks. At the end of the incubation, the blood was centrifuged at 6000×g for 5 min at 4° C. to obtain plasma. A 100 μL aliquot of plasma was mixed with 400 μL methanol for protein precipitation. The supernatant was obtained by centrifuging at 6000×g for 5 min at 4° C. and was assayed for prostaglandin E2 (PGE2) using a radioimmunoassay kit after conversion of PGE2 to its methyl oximate derivative according to the manufacturer's procedure.
For a test compound, the results were expressed as percent inhibition of PGE2 production relative to control incubations containing dimethyl sulfoxide vehicle. The data were analyzed by that a test compound at the indicated concentrations was changed log value and was applied simple linear regression. IC50 value was calculated by least squares method.

T1 sequence (P23219 24-599): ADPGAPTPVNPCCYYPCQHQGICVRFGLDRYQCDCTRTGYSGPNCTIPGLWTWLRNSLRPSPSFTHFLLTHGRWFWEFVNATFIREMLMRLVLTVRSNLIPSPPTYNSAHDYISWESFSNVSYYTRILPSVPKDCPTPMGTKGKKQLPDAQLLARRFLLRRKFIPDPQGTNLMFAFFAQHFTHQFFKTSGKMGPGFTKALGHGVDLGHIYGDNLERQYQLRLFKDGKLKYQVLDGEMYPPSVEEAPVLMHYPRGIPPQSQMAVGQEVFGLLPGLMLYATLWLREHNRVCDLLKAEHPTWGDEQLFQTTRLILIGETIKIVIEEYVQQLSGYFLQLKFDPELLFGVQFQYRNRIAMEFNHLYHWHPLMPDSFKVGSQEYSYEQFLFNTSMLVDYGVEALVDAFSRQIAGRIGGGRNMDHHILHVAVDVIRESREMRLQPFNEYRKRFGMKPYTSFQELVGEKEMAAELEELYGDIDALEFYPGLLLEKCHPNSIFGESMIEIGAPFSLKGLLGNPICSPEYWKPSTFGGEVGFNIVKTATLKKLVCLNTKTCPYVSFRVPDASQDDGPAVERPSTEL

## COc1ccc(-c2oc(C(F)F)nc2-c2ccc(OC)nc2)cc1 [Example 77, 5-[2-(Difluoromethyl)-5-(4-methoxyphenyl)-1,3-oxazol-4-yl]-2-methoxypyridine]
other
  melting point: 87 to 89 °C

## COc1ccc(-c2nc(C(F)(F)F)oc2-c2ccc(OCCNS(C)(=O)=O)cc2)cn1 [Example 54, N-(2-{4-[4-(6-Methoxy-3-pyridinyl)-2-(trifluoromethyl)-1,3-oxazol-5-yl]phenoxy}ethyl)methanesulfonamide]
Arthritic rats
  The coefficient of analgesic: >1.5
COX-I
  IC50: < 10 nM
COX-II
  IC50: > 100 nM

## COc1ccc(-c2nc(C3CC3)oc2-c2ccc(OCCO)cc2)cn1 [Example 118, 2-{4-[2-Cyclopropyl-4-(6-methoxy-3-pyridinyl)-1,3-oxazol-5-yl]phenoxy}ethanol]
Arthritic rats
  The coefficient of analgesic: >1.5
COX-I
  IC50: < 10 nM
COX-II
  IC50: > 100 nM

## COc1ccc(-c2nc(C(F)F)oc2-c2ccc(OCCO)cc2)cc1 [Example 12, 2-{4-[2-(Difluoromethyl)-4-(4-methoxyphenyl)-1,3-oxazol-5-yl]phenoxy}ethanol]
Arthritic rats
  The coefficient of analgesic: >1.5
COX-I
  IC50: < 10 nM
COX-II
  IC50: > 100 nM
other
  melting point: 114 to 116 °C

## COc1ccc(-c2nc(C(F)F)oc2-c2ccc(OCCO)cc2)cn1 [Example 33, 2-{4-[2-(Difluoromethyl)-4-(6-methoxy-3-pyridinyl)-1,3-oxazol-5-yl]phenoxy}ethanol]
Arthritic rats
  The coefficient of analgesic: >1.5
COX-I
  IC50: < 10 nM
COX-II
  IC50: > 100 nM
other
  melting point: 126 to 128 °C

## COc1ccc(-c2nc(C(N)=O)oc2-c2ccc(OC)cc2)cc1 [Example 2, 4,5-Bis(4-methoxyphenyl)-1,3-oxazole-2-carboxamide]
other
  melting point: 133 to 135 °C

## COc1ccc(-c2nc(C(C)=O)oc2-c2ccc(OC)cc2)cc1 [Example 5, 1-[4,5-Bis(4-methoxyphenyl)-1,3-oxazol-2-yl]ethanone]
other
  melting point: 139 to 140 °C

## CCOC(=O)c1nc(-c2ccc(OC)cc2)c(-c2ccc(OC)cc2)o1 [Example 1-2, Ethyl 4,5-bis(4-methoxyphenyl)-1,3-oxazole-2-carboxylate]
other
  melting point: 95 to 97 °C

## COc1ccc(-c2oc(C(=O)c3ccccc3)nc2-c2ccc(OC)nc2)cc1 [Example 73, [5-(4-Methoxyphenyl)-4-(6-methoxy-3-pyridinyl)-1,3-oxazol-2-yl](phenyl)methanone]
other
  melting point: 156 to 158 °C

## COc1ccc(-c2nc(C(F)(F)F)oc2-c2ccc(OCCNC(N)=O)cc2)cn1 [Example 55, N-(2-{4-[4-(6-Methoxy-3-pyridinyl)-2-(trifluoromethyl)-1,3-oxazol-5-yl]phenoxy}ethyl)urea]
Arthritic rats
  The coefficient of analgesic: >1.5
COX-I
  IC50: < 10 nM
COX-II
  IC50: > 100 nM

## COc1ccc(-c2oc(CO)nc2-c2ccc(C#N)cc2)cc1 [Example 79, 4-[2-(Hydroxymethyl)-5-(4-methoxyphenyl)-1,3-oxazol-4-yl]benzonitrile]
other
  melting point: 151 to 153 °C

## COc1ccc(-c2nc(C3CC3)oc2-c2ccc(OCCNS(C)(=O)=O)cc2)cn1 [Example 122, N-(2-{4-[2-Cyclopropyl-4-(6-methoxy-3-pyridinyl)-1,3-oxazol-5-yl]phenoxy}ethyl)methanesulfonamide]
Arthritic rats
  The coefficient of analgesic: >1.5
COX-I
  IC50: < 10 nM
COX-II
  IC50: > 100 nM

## COc1ccc(-c2nc(C(=O)c3ccccc3)oc2-c2ccc(OC)cc2)cc1 [Example 6, [4,5-Bis(4-methoxyphenyl)-1,3-oxazol-2-yl](phenyl)methanone]
other
  melting point: 164 to 166 °C

## COCc1nc(-c2ccc(OC)cc2)c(-c2ccc(C#N)cc2)o1 [Example 80-3, 4-[2-(Methoxymethyl)-4-(4-methoxyphenyl)-1,3-oxazol-5-yl]benzonitrile]
other
  melting point: 85 to 86 °C

Source: patent US20040157891A1, “Inhibitor of cox” (FUJISAWA PHARMACEUTICAL CO., LTD., priority 2003, published 2004)
